Data published in publication PMC12251549, “Engineering a Radiohybrid PSMA Ligand with an Albumin-Binding Moiety and Pharmacokinetic Modulation via an Albumin-Binding Competitor for Radiotheranostics” (Molecules, 2025).

What was measured:
[1] = tested on: PSMA-expressing LNCaP cells; assay: Cellular uptake and internalization in LNCaP cells, blocking with 2-PMPA; assay type: cell-based; conditions: 2-PMPA 100 µM
Protocol: Cellular uptake experiments were performed according to a previous report with slight modifications. LNCaP cells expressing PSMA were cultured in RPMI 1640 medium containing 10% fetal bovine serum (FBS) and 1% penicillin–streptomycin on 6-well culture plates (containing 5 × 10^5 cells/well) for 24 h in a humidified atmosphere (5% CO2) incubator at 37 °C. After removing the medium and washing with phosphate-buffered saline (PBS) (−) once, a mixed solution of [^125I]5 and [^211At]6, [^125I]5 and [^67Ga]Ga-PSMA-617, and [^125I]5 and [^67Ga]5 in 1.0 mL of medium without FBS was added (3.7 kBq/each tracer/well). The final concentrations of the radioligands for [^125I]5, [^211At]6, and [^67Ga]5 were 45.5 pM, 0.2 pM, and 2.5 pM, respectively. These solutions containing radioligands were diluted in saline containing 0.05% (w/v) bovine serum albumin (BSA) to prevent adsorption to tubes or plates and further diluted with medium to 0.00125% as the final BSA concentration. After incubation for 10, 60, and 120 min, the medium from each well was removed, and the cells were washed twice with ice-cold PBS (−); the surface of the cells was washed twice with ice-cold 0.2 M glycine buffer (pH 3.0). The cells were lysed using a 1 M NaOH aqueous solution. The radioactivity of ^67Ga,^125I and ^211At in the 1 M NaOH aqueous solution was determined and defined as the internalized radioligand fraction using an auto well gamma counter (ARC-8001, Hitachi, Ltd., Tokyo, Japan) according to a previous paper. The radioactivity was determined with an auto well gamma counter and corrected for background radiation and physical decay during counting. A window from 16 to 69 keV was used for counting ^125I, and a window from 70 to 120 keV was used for counting ^211At. Correlation factors to eliminate any crossover of ^125I activity in the ^211At counts were determined by measuring the ^125I standard in each window. More than one week after the experiments, the radioactivity counts of ^125I were measured after the decay of ^211At. The protein amount in cells was quantified using a BCA Protein Assay Kit (Nacalai Tesque, Kyoto, Japan) according to the manufacturer’s protocol. All data were expressed as percent dose per milligram protein (%dose/mg protein). In blocking experiments, a selective inhibitor of the PSMA, (2S)-2-(phosphonomethyl)pentanedioic acid (2-PMPA) (final concentration 100 µM), was added to each well with tracers. After incubation for 10, 60, and 120 min, radioactivity and protein concentration were determined in the same manner as the experiment without the blocking agent.

[2] = Biodistribution after intravenous co-injection of [125I]5 and [211At]6 (Table S2); assay type: in vivo, normal mice (ddY); conditions: normal mice
Protocol: [^67Ga]Ga-PSMA-617 (37 kBq) and [^125I]5 (37 kBq) or [^125I]5 (37 kBq) and [^211At]6 (37 kBq) were intravenously co-administered into three or four normal mice at each timepoint (6 weeks male ddY mice, 28–30 g, Japan SLC, Inc., Hamamatsu, Japan). Mice were sacrificed at 10 min, 1 h, 4 h, and 24 h ([^67Ga]Ga-PSMA-617 and [^125I]5) or at 10 min, 1 h, 4 h, 12 h, and 24 h ([^125I]5 and [^211At]6) postinjection of the radiolabeled compounds. Tissues of interest were removed and weighed, and the radioactivity of ^67Ga and ^125I and ^125I and ^211At were determined with an auto well gamma counter (ARC-8001) and corrected for background radiation as described in the Cellular Uptake Experiments Section. To determine the amount and routes of the radioactivity excreted from the body for 24 h after the injection of radiolabeled compounds, mice were housed in metabolic cages (METABOLICA, SUGIYAMA-GEN Co., Ltd., Tokyo, Japan). Data are shown as the percentage of injected dose per gram of tissues (%ID/g) or %ID.

[3] = In vitro stability test in 0.1 M phosphate buffer; assay type: physicochemical; conditions: 0.1 M PB solution containing 10% ethanol, 37 °C, 24 h, mean ± SD for three samples
Protocol: samples were analyzed by RP-HPLC using a Cosmosil 5C18-AR-II (4.6 × 150 mm) at a flow rate of 1 mL/min with a gradient mobile phase of 60% methanol in water with 0.1% trifluoroacetic acid (TFA) to 80% methanol in water with 0.1% TFA for 20 min.
In vitro stability test in 0.1 M PB solution containing 10% ethanol was performed. The […]
and 97.1 ± 0.9% (mean ± SD for three samples) after incubating at 37 °C for 24 h, […]

[4] = Biodistribution with post-administration of albumin-binding competitor IPBA; assay type: in vivo, normal mice (ddY); conditions: normal mice, IPBA at 1 h postinjection, 10 molar equivalent of blood albumin; except in the kidney
Protocol: To evaluate the effects of an albumin-binding competitor (sodium salt of IPBA) in normal mice, [^125I]5 and [^211At]6 were intravenously co-administered. At 1 h postinjection of the radiolabeled compounds, IPBA (3.4 mg, 11 µmol) dissolved in saline at a 10 molar equivalent of blood albumin was administered. Mice were sacrificed at 65 min, 70 min, 2 h, 4 h, 12 h, and 24 h postinjection of [^125I]5 and [^211At]6. Tissues of interest were treated, and the radioactivity was measured in the same manner as above. Data are also shown as %ID/g or %ID.

## O=C([O-])CN1CCN(CC(=O)[O-])CCN(CC(=O)NC(CCCCNC(=O)CCCc2ccc([211At])cc2)C(=O)NCC2CCC(C(=O)NC(Cc3ccc4ccccc4c3)C(=O)NCCCCC(NC(=O)NC(CCC(=O)O)C(=O)O)C(=O)O)CC2)CCN(CC(=O)[O-])CC1.[Ga+3] (stereo not shown) [[^211At]6]
[1]
  Effect of excess 2-PMPA on cellular uptake: significantly reduced
[2]
  In vivo dehalogenation (radioactivity in stomach and neck): minimal deiodination or deastatination
[2]; i.v., 10 min after injection
  Biodistribution of radioactivity: Blood: 26.93 (0.47) % injected dose per gram
  Biodistribution of radioactivity: Bone: 2.74 (0.53) % injected dose per gram
  Biodistribution of radioactivity: Brain: 0.53 (0.06) % injected dose per gram
  Biodistribution of radioactivity: Heart: 4.66 (0.37) % injected dose per gram
  Biodistribution of radioactivity: Kidney: 5.19 (0.64) % injected dose per gram
  Biodistribution of radioactivity: L. Intestine: 0.78 (0.05) % injected dose per gram
  Biodistribution of radioactivity: Liver: 3.61 (0.05) % injected dose per gram
  Biodistribution of radioactivity: Lung: 15.25 (2.29) % injected dose per gram
  Biodistribution of radioactivity: Muscle: 0.99 (0.14) % injected dose per gram
  Biodistribution of radioactivity: Neck: 0.04 (0.01) % injected dose
  Biodistribution of radioactivity: Pancreas: 2.59 (0.24) % injected dose per gram
  Biodistribution of radioactivity: S. Intestine: 1.42 (0.15) % injected dose per gram
  Biodistribution of radioactivity: Spleen: 2.56 (0.44) % injected dose per gram
  Biodistribution of radioactivity: Stomach: 0.85 (0.07) % injected dose
[2]; i.v., 1 h after injection
  Biodistribution of radioactivity: Blood: 17.94 (1.58) % injected dose per gram
  Biodistribution of radioactivity: Bone: 1.92 (0.21) % injected dose per gram
  Biodistribution of radioactivity: Brain: 0.38 (0.12) % injected dose per gram
  Biodistribution of radioactivity: Heart: 4.88 (0.26) % injected dose per gram
  Biodistribution of radioactivity: Kidney: 4.36 (0.53) % injected dose per gram
  Biodistribution of radioactivity: L. Intestine: 0.93 (0.15) % injected dose per gram
  Biodistribution of radioactivity: Liver: 2.54 (0.38) % injected dose per gram
  Biodistribution of radioactivity: Lung: 10.21 (2.55) % injected dose per gram
  Biodistribution of radioactivity: Muscle: 1.25 (0.10) % injected dose per gram
  Biodistribution of radioactivity: Neck: 0.04 (0.01) % injected dose
  Biodistribution of radioactivity: Pancreas: 2.07 (0.45) % injected dose per gram
  Biodistribution of radioactivity: S. Intestine: 1.59 (0.31) % injected dose per gram
  Biodistribution of radioactivity: Spleen: 1.77 (0.11) % injected dose per gram
  Biodistribution of radioactivity: Stomach: 0.84 (0.27) % injected dose
[2]; i.v., 4 h after injection
  Biodistribution of radioactivity: Blood: 13.40 (1.08) % injected dose per gram
  Biodistribution of radioactivity: Bone: 1.59 (0.09) % injected dose per gram
  Biodistribution of radioactivity: Brain: 0.32 (0.06) % injected dose per gram
  Biodistribution of radioactivity: Heart: 4.31 (0.39) % injected dose per gram
  Biodistribution of radioactivity: Kidney: 4.44 (0.25) % injected dose per gram
  Biodistribution of radioactivity: L. Intestine: 1.15 (0.35) % injected dose per gram
  Biodistribution of radioactivity: Liver: 1.55 (0.24) % injected dose per gram
  Biodistribution of radioactivity: Lung: 7.81 (1.92) % injected dose per gram
  Biodistribution of radioactivity: Muscle: 1.27 (0.08) % injected dose per gram
  Biodistribution of radioactivity: Neck: 0.04 (0.01) % injected dose
  Biodistribution of radioactivity: Pancreas: 1.76 (0.35) % injected dose per gram
  Biodistribution of radioactivity: S. Intestine: 1.30 (0.19) % injected dose per gram
  Biodistribution of radioactivity: Spleen: 1.60 (0.25) % injected dose per gram
  Biodistribution of radioactivity: Stomach: 0.83 (0.18) % injected dose
[2]; i.v., 12 h after injection
  Biodistribution of radioactivity: Blood: 12.23 (1.51) % injected dose per gram
  Biodistribution of radioactivity: Bone: 1.91 (0.32) % injected dose per gram
  Biodistribution of radioactivity: Brain: 0.42 (0.07) % injected dose per gram
  Biodistribution of radioactivity: Heart: 3.83 (0.57) % injected dose per gram
  Biodistribution of radioactivity: Kidney: 5.31 (0.31) % injected dose per gram
  Biodistribution of radioactivity: L. Intestine: 0.79 (0.16) % injected dose per gram
  Biodistribution of radioactivity: Liver: 1.58 (0.12) % injected dose per gram
  Biodistribution of radioactivity: Lung: 7.79 (0.46) % injected dose per gram
  Biodistribution of radioactivity: Muscle: 1.37 (0.10) % injected dose per gram
  Biodistribution of radioactivity: Neck: 0.18 (0.06) % injected dose
  Biodistribution of radioactivity: Pancreas: 1.44 (0.82) % injected dose per gram
  Biodistribution of radioactivity: S. Intestine: 1.06 (0.11) % injected dose per gram
  Biodistribution of radioactivity: Spleen: 1.71 (0.33) % injected dose per gram
  Biodistribution of radioactivity: Stomach: 1.04 (0.11) % injected dose
[2]; i.v., 24 h after injection
  Biodistribution of radioactivity: Blood: 10.45 (0.19) % injected dose per gram
  Biodistribution of radioactivity: Bone: 1.56 (0.33) % injected dose per gram
  Biodistribution of radioactivity: Brain: 0.43 (0.14) % injected dose per gram
  Biodistribution of radioactivity: Heart: 4.06 (1.41) % injected dose per gram
  Biodistribution of radioactivity: Kidney: 3.50 (0.24) % injected dose per gram
  Biodistribution of radioactivity: L. Intestine: 0.62 (0.15) % injected dose per gram
  Biodistribution of radioactivity: Liver: 1.43 (0.07) % injected dose per gram
  Biodistribution of radioactivity: Lung: 5.77 (0.84) % injected dose per gram
  Biodistribution of radioactivity: Muscle: 1.28 (0.09) % injected dose per gram
  Biodistribution of radioactivity: Neck: 0.14 (0.06) % injected dose
  Biodistribution of radioactivity: Pancreas: 1.61 (0.22) % injected dose per gram
  Biodistribution of radioactivity: S. Intestine: 0.81 (0.05) % injected dose per gram
  Biodistribution of radioactivity: Spleen: 1.33 (0.43) % injected dose per gram
  Biodistribution of radioactivity: Stomach: 1.31 (0.10) % injected dose
[2]; i.v., excreted for 24 h after injection (column not printed safely), Table S2
  Biodistribution of radioactivity: Feces: 2.00 (0.33) % injected dose
[2]; profile resembled that of [125I]5
  Blood retention: prolonged blood retention
[3]
  Radiochemical purity after incubation (in vitro stability): 97.1 ± 0.9%
[4]
  Effect of IPBA administration on radioactivity levels in tissues: significantly decreased
